Legend:
[1] = biological target: CDK1/cyclin B (CDK1B) (Homo sapiens, UniProt P06493); assay: ADP-Glo kinase assay, CDK1/cyclin B; format: biochemical; conditions: for Ki: apparent Ki from IC50, ADP-Glo; for inhibition at 1 µM: read-out: % Enzymatic Inhibition at 1 µM CDK1B
Protocol: (§1) The luminescent ADP-Glo™ assay, which measures the amount of ADP formed in a kinase reaction as described previously, was used to determine the kinase inhibition profile of the compounds. […] Ki values were calculated from their corresponding IC50 values (the concentrations of inhibitors that inhibit the kinase activity by 50%) and the Michaelis–Menten constant (Km) of ATP for each kinase using the Cheng–Prusoff equation as previously stated. In brief, 1 μL of each concentration of the test compounds was added to the respective wells, and to it were added 1 μL of the kinases and their respective substrates, diluted to the desired concentration in kinase reaction buffer ([…] tris base pH 7.5, 20 mM MgCl2, 0.4 µM dithiothreitol, and 0.1 mg/mL bovine serum albumin), and the pH was adjusted by adding 1 μL of a two-fold diluted kinase reaction buffer. To initiate the kinase activity, 1 μL of ATP solution (the concentration varies depending on the type of kinase under investigation) was added to each well, and the mixture was incubated at room temperature (20 to 22 °C) for 30–60 min depending on the kinase being tested. The reaction was then halted, 5 μL of the ADP-Glo reagent was added to each well (removing any unreacted ATP), and it was incubated at room temperature for 40 min. Then, to each well, 10 μL of the kinase detection reagent containing luciferin was added, which was incubated once more at room temperature in the dark for 30 min and the luminescence was measured by an EnVision® multi-label plate reader with an integration time of 1.5 s per well. Positive controls (the wells without the inhibitor) and negative or blank controls (the wells without the inhibitor and the enzyme, but with 1 × kinase reaction buffer) were also determined in 2.5% DMSO.
(§2) The percentage of kinase inhibition was determined using the following equation: % Residual kinase activity=Luminescence in the presence of inhibitor−Luminescence of blank control/Luminescence in the absence of inhibitor−Luminescence of blank control×100%%kinase inhbition=100%−%Residual kinase activity
(§3) Km is defined as the concentration of ATP or the substrate required to produce 50% of the maximal reaction rate in the kinase reaction. Therefore, since we used the concentration of ATP and the substrate at their Km values, Ki simply equals IC50/2 assuming these inhibitors are ATP-competitive based on the Cheng–Prusoff equation: Ki = IC50/(1 + ([ATP]/Km(ATP))) where [ATP] is the ATP concentration used for the IC50 determination and Km(ATP) for each kinase was determined experimentally.

[2] = biological target: CDK2/cyclin E (CDK2E) (Homo sapiens, UniProt P24941); assay: ADP-Glo kinase assay, CDK2/cyclin E; format: biochemical; conditions: for Ki: apparent Ki from IC50, ADP-Glo; for inhibition at 1 µM: read-out: % Enzymatic Inhibition at 1 µM CDK2E
Protocol: as §1, §2, §3

[3] = biological target: CDK5/p25 (CDK5p25) (Homo sapiens, UniProt Q00535); assay: ADP-Glo kinase assay, CDK5/p25; format: biochemical; conditions: for Ki: apparent Ki from IC50, ADP-Glo; for inhibition at 1 µM: read-out: % Enzymatic Inhibition at 1 µM CDK5p25
Sequence of CDK5/p25 (CDK5p25) (Q00535 whole entry): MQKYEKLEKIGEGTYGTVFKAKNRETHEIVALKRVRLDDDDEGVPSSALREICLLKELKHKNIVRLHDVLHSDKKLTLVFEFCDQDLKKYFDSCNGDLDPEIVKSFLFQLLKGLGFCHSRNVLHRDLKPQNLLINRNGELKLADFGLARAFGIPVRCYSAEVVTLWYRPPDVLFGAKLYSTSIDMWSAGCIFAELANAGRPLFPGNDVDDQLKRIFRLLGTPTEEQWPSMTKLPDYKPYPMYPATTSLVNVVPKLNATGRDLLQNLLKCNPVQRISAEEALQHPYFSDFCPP
Sequence of CDK5/p25 (CDK5p25) (Q15078 99-307 partner limits assumed): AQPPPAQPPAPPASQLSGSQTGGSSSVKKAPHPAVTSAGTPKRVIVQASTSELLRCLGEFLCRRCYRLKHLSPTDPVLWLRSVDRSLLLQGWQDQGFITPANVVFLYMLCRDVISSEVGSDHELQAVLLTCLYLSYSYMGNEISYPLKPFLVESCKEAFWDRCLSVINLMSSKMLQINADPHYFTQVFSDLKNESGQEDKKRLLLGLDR
Protocol: as §1, with “Then, to each well, 10 μL of the kinase detection reagent containing luciferin was added, which was incubated once more at room temperature in the dark for 30 min and the luminescence was measured by an EnVision® multi-label plate reader with an integration time of 1.5 s per well.” left out
as §2, §3

[4] = biological target: CDK9/cyclin T1 (CDK9T1) (Homo sapiens, UniProt P50750); assay: ADP-Glo kinase assay, CDK9/cyclin T1; format: biochemical; conditions: for Ki: apparent Ki from IC50, ADP-Glo; for inhibition at 1 µM: read-out: % Enzymatic Inhibition at 1 µM CDK9T1
Sequence of CDK9/cyclin T1 (CDK9T1) (P50750 whole entry): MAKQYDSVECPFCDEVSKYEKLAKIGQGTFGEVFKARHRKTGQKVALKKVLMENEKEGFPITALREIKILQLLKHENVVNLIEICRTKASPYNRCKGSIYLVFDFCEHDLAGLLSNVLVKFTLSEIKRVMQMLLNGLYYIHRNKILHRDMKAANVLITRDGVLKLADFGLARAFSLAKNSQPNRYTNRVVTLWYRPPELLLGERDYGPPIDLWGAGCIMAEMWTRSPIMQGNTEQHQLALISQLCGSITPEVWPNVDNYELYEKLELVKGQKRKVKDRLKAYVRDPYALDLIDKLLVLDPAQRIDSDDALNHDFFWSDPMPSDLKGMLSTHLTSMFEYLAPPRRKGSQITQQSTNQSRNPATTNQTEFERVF
Sequence of CDK9/cyclin T1 (CDK9T1) (O60563 whole entry partner): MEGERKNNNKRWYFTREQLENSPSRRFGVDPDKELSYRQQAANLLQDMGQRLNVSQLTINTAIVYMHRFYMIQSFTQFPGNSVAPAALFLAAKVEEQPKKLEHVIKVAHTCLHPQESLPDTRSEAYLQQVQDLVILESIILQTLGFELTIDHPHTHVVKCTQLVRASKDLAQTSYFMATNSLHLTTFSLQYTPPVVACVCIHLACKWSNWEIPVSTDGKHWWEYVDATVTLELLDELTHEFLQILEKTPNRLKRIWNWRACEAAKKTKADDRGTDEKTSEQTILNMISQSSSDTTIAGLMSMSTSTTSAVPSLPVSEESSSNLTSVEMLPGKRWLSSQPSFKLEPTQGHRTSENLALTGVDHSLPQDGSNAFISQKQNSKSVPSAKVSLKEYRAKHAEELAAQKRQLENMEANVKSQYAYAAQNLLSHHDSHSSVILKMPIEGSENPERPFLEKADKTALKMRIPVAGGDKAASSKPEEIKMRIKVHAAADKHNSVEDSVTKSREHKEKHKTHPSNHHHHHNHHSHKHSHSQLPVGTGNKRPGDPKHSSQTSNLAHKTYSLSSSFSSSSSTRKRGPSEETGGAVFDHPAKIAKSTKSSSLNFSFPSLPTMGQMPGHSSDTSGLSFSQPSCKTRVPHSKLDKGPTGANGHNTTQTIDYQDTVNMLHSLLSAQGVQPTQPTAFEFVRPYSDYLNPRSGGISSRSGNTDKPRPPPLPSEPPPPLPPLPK
Protocol: as §1, with “Then, to each well, 10 μL of the kinase detection reagent containing luciferin was added, which was incubated once more at room temperature in the dark for 30 min and the luminescence was measured by an EnVision® multi-label plate reader with an integration time of 1.5 s per well.” left out
as §2, §3

[5] = test system: A2780 ovarian cancer cells; assay: 72 h MTT antiproliferative assay, A2780; format: cell-based; conditions: for GI50 / inhibition at 1 µM: Homo sapiens, A2780, 72 h MTT; for inhibition at 1 µM: read-out: % Growth Inhibition (GI) at 1 µM A2780
Source text: Cancer cell lines derived from leukemia (MV4-11 and U937), breast (MCF7 (Rb-positive) and MDA-MB-231(Rb-negative)), and ovarian (A2780, OVCAR5, OAW28, OV90, Cov318, and Cov504) cancers, and glioblastoma (U87, T98G and U251) were acquired from the cell bank at Drug Discovery and Development, University of South Australia, and cultured according to the American Type Culture Collection (ATCC) recommendation in Roswell Park Memorial Institute (RPMI)-1640, Dulbecco’s Modified Eagle’s Medium (DMEM), or Minimum Essential Media (MEM), with 10% fetal bovine serum (Sigma-Aldrich, Castle Hill, NSW, Australia) within a humidified incubator at 37 °C in the presence of 5% CO2.
The MTT (Life Technologies, Mulgrave, VIC, Australia) and resazurin (Sigma-Aldrich) assays were used to determine the antiproliferative activities of the compounds initially at 1 µM against the cancer cell lines stated above.

Sequence of CDK1/cyclin B (CDK1B) (P06493 whole entry): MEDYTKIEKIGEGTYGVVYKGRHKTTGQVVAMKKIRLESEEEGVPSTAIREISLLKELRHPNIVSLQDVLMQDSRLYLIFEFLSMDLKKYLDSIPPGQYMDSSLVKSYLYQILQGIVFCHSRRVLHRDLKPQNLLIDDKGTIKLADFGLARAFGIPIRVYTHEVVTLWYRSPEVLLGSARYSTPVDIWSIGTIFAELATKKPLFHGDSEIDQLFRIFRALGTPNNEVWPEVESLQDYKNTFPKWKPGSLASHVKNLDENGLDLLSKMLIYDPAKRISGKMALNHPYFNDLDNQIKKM
Sequence of CDK1/cyclin B (CDK1B) (P14635 whole entry partner): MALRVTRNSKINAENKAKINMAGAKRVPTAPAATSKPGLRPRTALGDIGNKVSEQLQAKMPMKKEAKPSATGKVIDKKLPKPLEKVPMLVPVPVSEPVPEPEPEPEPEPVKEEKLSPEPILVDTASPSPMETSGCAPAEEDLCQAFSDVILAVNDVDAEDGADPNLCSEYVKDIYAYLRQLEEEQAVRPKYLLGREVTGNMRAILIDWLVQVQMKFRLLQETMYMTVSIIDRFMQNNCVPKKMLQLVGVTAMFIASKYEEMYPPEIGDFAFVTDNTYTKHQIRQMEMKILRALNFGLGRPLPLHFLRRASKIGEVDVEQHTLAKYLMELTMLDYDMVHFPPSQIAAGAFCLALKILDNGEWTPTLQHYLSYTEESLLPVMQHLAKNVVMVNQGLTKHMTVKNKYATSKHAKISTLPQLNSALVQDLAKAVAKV

Row | SMILES | Ki [1] | Ki [2] | Ki [3] | Ki [4] | GI50 [5] | fold lower antiproliferative activity against A2780 compared to 1 ([5]; versus 1) | inhibition at 1 µM [2] | inhibition at 1 µM [5] | inhibition at 1 µM [4] | inhibition at 1 µM [1] | fold reduced CDK2 inhibition compared to 15 ([2]; versus 15, Ki ratio) | fold less potent antiproliferative activity against A2780 than 15 ([5]; versus 15, GI50 ratio) | inhibition at 1 µM [3]
1 | Cn1cc(-c2nc(Nc3cn[nH]c3)ncc2F)cn1 [Compound 14, 5-Fluoro-4-(1-methyl-1H-pyrazol-4-yl)-N-(1H-pyrazol-4-yl)pyrimidin-2-amine] | 0.018 µM | 0.007 µM | 0.003 µM | 0.016 µM | 0.498 µM | about 28 fold |  |  |  |  |  |  | 
2 | Cn1cc(Nc2ncc(F)c(-c3cnn(C)c3)n2)cn1 [Compound 16, 5-Fluoro-N,4-bis(1-methyl-1H-pyrazol-4-yl)pyrimidin-2-amine] | 0.092 µM | 0.023 µM | 0.018 µM | 0.098 µM |  |  | 97% | 9% |  |  |  |  | 
3 | Cn1cc(Nc2ncc(Cl)c(-c3cnn(C)c3)n2)cn1 [Compound 17, 5-Chloro-N,4-bis(1-methyl-1H-pyrazol-4-yl)pyrimidin-2-amine] | 0.034 µM | 0.011 µM |  |  | 1.02 µM |  |  | 87% |  |  |  |  | 
4 | Cn1cc(-c2nc(Nc3cnn(CC(N)=O)c3)ncc2F)cn1 [Compound 18, 2-(4-((5-Fluoro-4-(1-methyl-1H-pyrazol-4-yl)pyrimidin-2-yl)amino)-1H-pyrazol-1-yl)acetamide] | 0.112 µM | 0.085 µM | 0.193 µM |  |  |  |  | 0% | 68% |  |  |  | 
5 | Cn1cc(-c2nc(Nc3cnn(CC(N)=O)c3)ncc2Cl)cn1 [Compound 19, 2-(4-((5-Chloro-4-(1-methyl-1H-pyrazol-4-yl)pyrimidin-2-yl)amino)-1H-pyrazol-1-yl)acetamide] | 0.018 µM | 0.025 µM | 0.052 µM | 0.101 µM |  |  |  | 44% |  |  |  |  | 
6 | Cc1nn(C)cc1-c1nc(Nc2cnn(C)c2)ncc1F [Compound 20, 4-(1,3-Dimethyl-1H-pyrazol-4-yl)-5-fluoro-N-(1-methyl-1H-pyrazol-4-yl)pyrimidin-2-amine] | 0.164 µM | 0.026 µM | 0.018 µM | 0.343 µM |  |  |  | 7% |  |  |  |  | 
7 | Cc1nn(C)cc1-c1nc(Nc2cnn(C)c2)ncc1Cl [Compound 21, 5-Chloro-4-(1,3-dimethyl-1H-pyrazol-4-yl)-N-(1-methyl-1H-pyrazol-4-yl)pyrimidin-2-amine] | 0.225 µM | 0.023 µM | 0.035 µM | 0.062 µM |  |  |  | 8% |  |  |  |  | 
8 | Cn1cc(-c2nc(Nc3ccn[nH]3)ncc2Cl)cn1 [Compound 23, 5-Chloro-4-(1-methyl-1H-pyrazol-4-yl)-N-(1H-pyrazol-5-yl)pyrimidin-2-amine] |  | 0.09 µM | 0.04 µM |  | 7.35 µM |  |  |  | 40% | 9% | 18 fold | 47 fold | 
9 | Cn1cc(-c2nc(Nc3nccs3)ncc2Cl)cn1 [Compound 25, N-(5-Chloro-4-(1-methyl-1H-pyrazol-4-yl)pyrimidin-2-yl)thiazol-2-amine] |  |  | 0.177 µM |  |  |  | 46% | 9% | 31% | 31% |  |  | 
10 | Cn1cc(Nc2ncc(F)c(-c3cnn(CCN4CCOCC4)c3)n2)cn1 [Compound 31, 5-Fluoro-N-(1-methyl-1H-pyrazol-4-yl)-4-(1-(2-morpholinoethyl)-1H-pyrazol-4-yl)pyrimidin-2-amine] |  |  |  |  |  |  | 48% | 0% | 24% | 26% |  |  | 43%
11 | Cn1cc(Nc2ncc(Cl)c(-c3cnn(CCN4CCOCC4)c3)n2)cn1 [Compound 32, 5-Chloro-N-(1-methyl-1H-pyrazol-4-yl)-4-(1-(2-morpholinoethyl)-1H-pyrazol-4-yl)pyrimidin-2-amine] |  | 0.252 µM | 0.126 µM |  |  |  |  | 3% | 21% | 36% |  |  | 
12 | Cn1cc(Nc2ncc(F)c(-c3ccnn3C)n2)cn1 [Compound 35, 5-Fluoro-N-(1-methyl-1H-pyrazol-4-yl)-4-(1-methyl-1H-pyrazol-5-yl)pyrimidin-2-amine] |  |  |  |  |  |  | 64% | 19% | 45% | 49% |  |  | 58%

Source: article PMC10096391, “Discovery of N,4-Di(1H-pyrazol-4-yl)pyrimidin-2-amine-Derived CDK2 Inhibitors as Potential Anticancer Agents: Design, Synthesis, and Evaluation” (Molecules, 2023)
